The source made the active and inactive calls. No cut-off for these calls is given here.
Each compound was assayed against T1, Rhodopsin (Bos taurus, UniProt P02699) (assay: Binding affinity to photoactivated rhodopsin in bovine retinal rod outer-segment membranes assessed as induction of extra receptor MII state stabilization by UV/visible difference spectroscopy).
T1 sequence (P02699 whole entry): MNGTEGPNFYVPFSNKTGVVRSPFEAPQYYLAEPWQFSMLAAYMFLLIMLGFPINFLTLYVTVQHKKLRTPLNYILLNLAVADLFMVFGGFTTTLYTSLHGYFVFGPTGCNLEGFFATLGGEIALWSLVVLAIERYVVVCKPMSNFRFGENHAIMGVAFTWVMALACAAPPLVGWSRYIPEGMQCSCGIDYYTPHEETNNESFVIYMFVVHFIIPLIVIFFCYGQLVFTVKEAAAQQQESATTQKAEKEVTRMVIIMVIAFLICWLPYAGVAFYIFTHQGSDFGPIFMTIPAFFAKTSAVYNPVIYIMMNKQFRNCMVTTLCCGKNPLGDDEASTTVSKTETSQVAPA

Row | EC50 [µM] | Compound
1 | 120 | C[C@H]1[C@H](C)CC[C@]2(C(=O)O)CC[C@]3(C)C(=CC[C@@H]4[C@@]5(C)C[C@@H](O)[C@H](O)[C@@](C)(CO)[C@@H]5[C@H](O)C[C@]43C)[C@H]12 [MADECASSIC ACID]

Each compound was assayed against T1, Rhodopsin (assay: Inhibition of bovine retinal rod outer-segment photoactivated rhodopsin-transducer interaction by transducer release assay).

Row | IC50 [µM] | Compound
2 | 180 | C[C@H]1[C@H](C)CC[C@]2(C(=O)O)CC[C@]3(C)C(=CC[C@@H]4[C@@]5(C)C[C@@H](O)[C@H](O)[C@@](C)(CO)[C@@H]5[C@H](O)C[C@]43C)[C@H]12 [MADECASSIC ACID]

What follows are compounds tested against Rhodopsin (Bos taurus) (UniProt P02699) (assay: Binding affinity to photoactivated rhodopsin in bovine retinal rod outer-segment membranes assessed as induction of extra receptor MII state stabilization at 250 uM by UV/visible difference spectroscopy).
Sequence of Rhodopsin (Bos taurus) (P02699 whole entry): as above

Row | Activity | Compound
3 | Active | C[C@]12CCC(=O)C=C1CC[C@@H]1[C@@H]2[C@@H](O)C[C@@]2(C)[C@H]1CC[C@]2(O)[C@@H](O)CO
4 | Active | C[C@H]1[C@H](C)CC[C@]2(C(=O)O)CC[C@]3(C)C(=CC[C@@H]4[C@@]5(C)CC[C@H](O)C(C)(C)[C@@H]5CC[C@]43C)[C@H]12
5 | Active | CC1(C)[C@@H](O)CC[C@]2(C)[C@H]3C(=O)C=C4[C@@H]5C[C@@](C)(C(=O)O)CC[C@]5(C)CC[C@@]4(C)[C@]3(C)CC[C@@H]12
6 | Active | CC1(C)CC[C@]2(C(=O)O)CC[C@]3(C)C(=CC[C@@H]4[C@@]5(C)CC[C@H](O)C(C)(C)[C@@H]5CC[C@]43C)[C@@H]2C1
7 | Active | CC1(C)CC[C@]2(C(=O)O)CC[C@]3(C)C(=CC[C@@H]4[C@@]5(C)C[C@H](O)[C@H](O)[C@@](C)(C(=O)O)[C@@H]5CC[C@]43C)[C@@H]2C1
8 | Active | CC1(C)[C@@H](O)CC[C@]2(C)[C@H]3C(=O)C=C4C5C[C@@](C)(C(=O)O)CC[C@]5(C)CC[C@@]4(C)[C@]3(C)CC[C@@H]12 (single isomer, unassigned)
9 | Active | C[C@]12CC[C@H]3[C@@H](CCC4=CC(=O)CC[C@@]43C)[C@@H]1CC[C@@H]2CCOS(=O)(=O)c1ccc(Br)cc1
